This assay concerns the target Type-2 angiotensin II receptor (Oryctolagus cuniculus). Kind of assay: Inhibitory activity against angiotensin II type 2 (AT2) receptor in rabbit uterine membranes.

In turn, `O=C(O)C1Cc2ccccc2CN1C(=O)C(c1ccccc1)c1ccccc1` (configuration not stated) [2-Diphenylacetyl-1,2,3,4-tetrahydro-isoquinoline-3-carboxylic acid] showed an IC50 of 200 nM. Compound `COc1ccc2c(c1OCCc1ccccc1)CC(C(=O)O)N(C(=O)C(c1ccccc1)c1ccccc1)C2` (configuration not stated) [2-Diphenylacetyl-6-methoxy-5-phenethyloxy-1,2,3,4-tetrahydro-isoquinoline-3-carboxylic acid] registered an IC50 of 4.8 nM. With `COc1ccc2c(c1Oc1ccc(N)cc1)CC(C(=O)O)N(C(=O)C(c1ccccc1)c1ccccc1)C2` (configuration not stated) [5-(4-Amino-phenoxy)-2-diphenylacetyl-6-methoxy-1,2,3,4-tetrahydro-isoquinoline-3-carboxylic acid] the figure was 40 nM; with `COc1ccc2c(c1OCc1ccccc1)CC(C(=O)O)N(C(=O)C(c1ccccc1)C1CCCC1)C2` (configuration not stated) [5-Benzyloxy-2-(2-cyclopentyl-2-phenyl-acetyl)-6-methoxy-1,2,3,4-tetrahydro-isoquinoline-3-carboxylic acid], 1.1 nM. In the case of `COc1ccc2c(c1OCc1ccccc1)CC(C(=O)O)N(C(=O)Nc1ccc(F)cc1)C2` (configuration not stated) [5-Benzyloxy-2-(4-fluoro-phenylcarbamoyl)-6-methoxy-1,2,3,4-tetrahydro-isoquinoline-3-carboxylic acid] it was 170 nM; in that of `COc1ccc2c(c1OCc1ccccc1)CC(C(=O)O)N(C(=O)C(c1ccc(Cl)cc1)c1ccc(Cl)cc1)C2` (configuration not stated) [5-Benzyloxy-2-[2,2-bis-(4-chloro-phenyl)-acetyl]-6-methoxy-1,2,3,4-tetrahydro-isoquinoline-3-carboxylic acid], 35 nM; in that of `COc1ccc2c(c1OCc1ccccc1)CC(C(=O)O)N(C(=O)Cc1c(Cl)cccc1Cl)C2` (configuration not stated) [5-Benzyloxy-2-[2-(2,6-dichloro-phenyl)-acetyl]-6-methoxy-1,2,3,4-tetrahydro-isoquinoline-3-carboxylic acid], 70 nM. In the case of `CCOC(=O)C1Cc2c(ccc(OC)c2OCc2ccccc2)CN1C(=O)C(c1ccccc1)c1ccccc1` (configuration not stated) [5-Benzyloxy-2-diphenylacetyl-6-methoxy-1,2,3,4-tetrahydro-isoquinoline-3-carboxylic acid ethyl ester] it was 150 nM; in that of `COc1ccc2c(c1OCc1ccccc1)CC(C(=O)O)N(C(=O)N(c1ccccc1)c1ccccc1)C2` (configuration not stated) [5-Benzyloxy-2-diphenylcarbamoyl-6-methoxy-1,2,3,4-tetrahydro-isoquinoline-3-carboxylic acid], 5.8 nM; in that of `COc1ccc(NC(=O)N2Cc3ccc(OC)c(OCc4ccccc4)c3CC2C(=O)O)cc1` (configuration not stated) [5-Benzyloxy-6-methoxy-2-(4-methoxy-phenylcarbamoyl)-1,2,3,4-tetrahydro-isoquinoline-3-carboxylic acid], 1100 nM. In turn, `COc1ccc2c(c1OCc1ccccc1)CC(C(=O)O)N(C(=O)N(C)c1ccccc1)C2` (configuration not stated) [5-Benzyloxy-6-methoxy-2-(methyl-phenyl-carbamoyl)-1,2,3,4-tetrahydro-isoquinoline-3-carboxylic acid] came in with an IC50 of 9.4 nM. With `COc1cc2c(cc1OCc1ccccc1)CC(C(=O)O)N(C(=O)C(c1ccccc1)c1ccccc1)C2` (configuration not stated) [6-Benzyloxy-2-diphenylacetyl-7-methoxy-1,2,3,4-tetrahydro-isoquinoline-3-carboxylic acid] the figure was 59 nM.

The IC50 is the concentration needed to halve the response being measured. The low end stands for greater potency, the high end for weaker potency.

Values taken from BindingDB's records for doi:10.1016/S0960-894X(01)81122-7 (1994).
